Measured values from patent publication US20170290820A1, “METHODS AND COMPOSITIONS FOR TREATING BETA-THALASSEMIA AND SICKLE CELL DISEASE” (Academia Sinica, priority 2013, published 2017).
Where a name gives a salt, the structure may show the parent alone.

Tests used:
[1] = system: primary human erythroid cells; test: AlamarBlue cell viability / proliferation assay; conditions: Table 1a; concentration reducing proliferation rate of primary human erythroid cells by 50%, 3 days

| Structure (SMILES) | melting point [°C] | IC50 [1] [µM] |
| --- | --- | --- |
| CN(C)CCN1C(=O)c2cccc3c(Cl)ccc(c23)C1=O (as salt: hydrochloride) [Compound B4, N-(2-dimethylamino-ethyl)-4-chloro-1,8-naphthalimide hydrochloride] | > 280 |  |
| CN(C)CCCN1C(=O)c2cccc3c(N)ccc(c23)C1=O (as salt: hydrochloride) [Compound E3, N-(3-dimethylamino-propyl)-4-amino-1,8-naphthalimide hydrochloride] | > 280 |  |
| CN(C)CCN1C(=O)c2cccc3cccc(c23)C1O (stereo not shown) [BO-2476, 2-(2-(Dimethylamino)ethyl)-3-hydroxy-2,3-dihydro-1H-benzo[de]isoquinolin-1-one] | 129 to 130 |  |
| CC(=O)Nc1ccc2c3c(cccc13)C(=O)N(CCN(C)C)C2=O [BO-2559, N-(2-(2-(Dimethylamino)ethyl)-1,3-dioxo-2,3-dihydro-1H-benzo[de]isoquinolin-6-yl)acetamide] | 278 to 279 |  |
| CN(C)CCN1Cc2cccc3c(N)ccc(c23)C1 [BO-2560, 2-(2-(Dimethylamino)ethyl)-2,3-dihydro-1H-benzo[de]isoquinolin-6-amine] | 253 to 254 |  |
| CN(C)CCN1Cc2cccc3c(N(C)C)ccc(c23)C1 [BO-2563, 2-(2-(Dimethylamino)ethyl)-N,N-dimethyl-2,3-dihydro-1H-benzo[de]isoquinolin-6-amine] | 251 to 252 |  |
| CCNc1ccc2c3c(cccc13)C(=O)N(CCN(C)C)C2=O [BO-2564, 2-(2-(Dimethylamino)ethyl)-6-(ethylamino)-1H-benzo[de]isoquinoline-1,3(2H)-dione] | 253 to 254 |  |
| CCNc1ccc2c3c(cccc13)CN(CCN(C)C)C2 [BO-2565, 2-(2-(dimethylamino)ethyl)-N-ethyl-2,3-dihydro-1H-benzo[de]isoquinolin-6-amine] | 239 to 240 |  |
| O=C1c2cccc3c([N+](=O)[O-])ccc(c23)C(=O)N1c1ccc(Cl)c(Cl)c1 [Compound A3, N-(3,4-Dichloro-phenyl)-4-nitro-1,8-naphthalimide] | > 280 | 5.2 |
| COc1cccc(N2C(=O)c3cccc4c([N+](=O)[O-])ccc(c34)C2=O)c1 [Compound A4, N-(3-Methoxy-phenyl)-4-nitro-1,8-naphthalimide] | > 280 | 21 |
| O=C(O)CCCc1ccc(N2C(=O)c3cccc4c([N+](=O)[O-])ccc(c34)C2=O)cc1 [Compound A5, N-(4-Butyric acid-phenyl)-4-nitro-1,8-naphthalimide] | 254.5 to 256 | 6.7 |
| O=C1c2cccc3c(Cl)ccc(c23)C(=O)N1c1ccccc1 [Compound A6, N-Phenyl-4-chloro-1,8-naphthalimide] | 263 to 265.5 | > 100 |
| COc1cccc(N2C(=O)c3cccc4c(Cl)ccc(c34)C2=O)c1 [Compound A7, N-(3-Methoxy-phenyl)-4-chloro-1,8-naphthalimide] | > 280 | > 100 |
| O=C1c2cccc3c(Cl)ccc(c23)C(=O)N1c1cccc(C(F)(F)F)c1 [Compound A8, N-(3-Trifluoromethyl-phenyl)-4-chloro-1,8-naphthalimide] | 278 to 279 | > 100 |
| O=C1c2cccc3c(Cl)ccc(c23)C(=O)N1c1cccc(Br)c1 [Compound A9, N-(3-Bromo-phenyl)-4-chloro-1,8-naphthalimide] | > 280 | > 100 |
| CN(C)CCCN1C(=O)c2cccc3c([N+](=O)[O-])ccc(c23)C1=O [Compound B3, N-(3-Dimethylamino-propyl)-4-nitro-1,8-naphthalimide] |  | 2.3 |
| CCN1C(=O)c2cccc3cccc(c23)C1=O [Compound C1, N-Ethyl-1,8-naphthalimide] |  | > 100 |
| CN1C(=O)c2cccc3c(Cl)ccc(c23)C1=O [Compound C4, N-Methyl-4-chloro-1,8-naphthalimide] |  | > 100 |
